Laboratory results: EP0971601B1, “DECAFFEINATED MATE EXTRACTS AND THE USE THEREOF” (Sensient Flavors Italy S.R.L., priority 1997, dated 1998)
≈ marks a conversion by molar mass, not a printed value.

Tests used:
[1] = DPPH stable free radical quenching (loss in absorbance at 517 nm); type: biochemical; conditions: methanol solution of DPPH, absorbance 517 nm
Source text: The activity of the extract in quenching the stable free radical DPPH through hydrogen transferring reaction, has been tested by monitoring the loss in absorbance at 517 nm of a methanol solution of DPPH [18] in the presence and the absence of increasing concentrations of Maté extract.

rat erythrocytes (RBC) = assay: UVB-induced lysis of erythrocytes (turbidimetric determination at 710 nm); type: cell-based; conditions: Erythrocyte, light or radiation study, 1.5 h, determined at 90 min irradiation, read-out: IC50, UVB-induced hemolysis
Procedure: • Fig.1 - HPLC profile of the decaffeinated aqueous extract of Maté. Chromatographic conditions: reverse phase column LC-18; mobile phase: linear gradient of 100% A (0.0127 N H3PO4/CH3CN/Ethylacetate 96.5'/3/0.5) to 30% B (CH3CN) in 30 min; flow rate: 1 ml/min; detection: UV-DAD 330 nm. […] Experimental conditions: Finnigan LCQ mass spectrometer; reverse phase column LC-18; mobile phase: linear gradient of 100% A (95% ammonium formiate / 5% CH3CN, pH 4.5 with HCOOH) to 30% B (95% CH3CN / 5% ammonium formiate, pH 4.5 with HCOOH) in 30 min; flow rate: 1 ml/min; negative ion detection. […] Values are the means ± S.D. of 5 determinations. • Fig.10 - Protective effect of decaffeinated aqueous extract of Maté on UVB-induced hemolysis. Red blood cells (0.2% suspensions) were exposed to UVB radiation for 210 min in the absence and in presence of different concentrations of decaffeinated aqueous extract of Maté; percentage hemolysis was turbidimetrically determined at 710 nm at 30 min intervals. Values are the means ± S.D. of 5 determinations.
Finally we evaluated in a cellular model (0.2% erythrocyte suspensions) the protective effect of the decaffeinated aqueous extract of Matè on the peroxidative stress induced by UVB exposure (0.4-4 J/cm^2), and monitoring the time-course of hemolysis (turbidimetric determination at 710 nm) at 30 min intervals.

IC50, quenching DPPH radical [1] [µg/mL]	Compound	IC50 (rat erythrocytes (RBC)) [µg/mL]
19	vitamin E	–
19 (≈ 108 µM)	O=C1O[C@H]([C@@H](O)CO)C(O)=C1O [ascorbic acid]	–
–	O=C(/C=C/c1ccc(O)c(O)c1)O[C@@H]1C[C@](O)(C(=O)O)C[C@@H](O)[C@H]1O [Chlorogenic acid, 3-O-caffeoyl quinic acid]	3.2 (≈ 9.03 µM)
